Laboratory results published in patent publication US20070202158A1, “Methods Of Administering Water-Soluble Prodrugs Of Propofol For Extended Sedation” (MGI GP, Inc., priority 2003, published 2007).

What was measured:
[1] = Plasma concentration of propofol derived from the test prodrug in rats (Table I); assay type: in vivo; conditions: rat; for F_Cmax / F_AUCt: relative to 5 mg/kg IV; for AUCt / Cmax: propofol in plasma; for AUCt: 0-360 min
Method: Upon administration, the test prodrug is converted in the body into propofol, its pharmacologically active metabolite. The pharmacokinetic profile, i.e. the blood plasma concentration of propofol derived from the test prodrug, was assessed in a separate experiment. Male Sprague-Dawley Rats (225-250 g) were obtained with indwelling jugular or intraduodenal catheters (Hilltop Labs, PA). On the day of testing, control blood samples were taken from the jugular vein prior to dosing. O-phosphonooxymethyl propofol disodium salt was then dosed in different concentrations in groups of 2-3 rats. The test prodrug was administered either by the oral, intravenous or intraduodenal routes. Blood samples (0.5 ml) were taken at 5, 15, 30, 45, 60, 120, 240 and 360 min after administration of the test prodrug. Blood samples were centrifuged to obtain plasma and stored frozen until analysis. The outcome of this experiment is depicted in the following table I:
“Cmax” is the mean maximum plasma concentration; “F Cmax” is the calculated mean bioavailability of the Cmax for propofol generated from the tested prodrug (as administered via various routes and at various doses), relative to an intravenous dose of 5 mg/kg at Cmax; “AUCt” is the mean area under the curve from time 0 to the last measured time point (360 min); “F AUCt” is the calculated mean bioavailability for AUCt. “Bioavailability” is the quotient, expressed as per cent, of the Cmax or AUCt for intragastric (po) or intraduodenal (GB) administration, and the Cmax or AUCt for a 5 mg/kg intravenous dose, adjusted for dose. […] This transformation provides a reasonable measure to compare the systemic exposure to propofol generated from the test compound (after administration of various doses by various routes) to systemic propofol exposure after I.V. administration of the prodrug.

[2] = tested on: Sprague-Dawley rats; assay: Behavioral sedation rating (scale 0-4) in rats after oral, intravenous or intraduodenal prodrug; assay type: in vivo, rat
From the text: This example compares the dose-dependent pharmacological effects of a propofol prodrug of Formula I, O-phosphonooxymethyl propofol disodium salt, on rats when administered in a single oral dose to the pharmacological effects observed after an equipotent intravenous infusion. Young adult male Sprague-Dawley rats (250-300 g, Charles River Laboratories) received oral doses of vehicle (0.12% Tris/0.25% monothioglycerol/saline; n=4, per oral gavage) or of O-phosphonooxy-methyl propofol disodium salt at doses of 100, 200, 300 and 400 mg/kg, dissolved in vehicle at 35 mg/ml (n=2 per dose) or 200 mg/ml w/v (n=2 per dose).
The above-described pharmacological effects of oral administration of the tested prodrug were compared with those caused by an equipotent intravenous infusion: Under halothane anesthesia, young adult rats received femoral vein catheters which were exteriorized and attached to a liquid swivel via a protectant spring. About 20 minutes after catheterization, and after full behavioral recovery from halothane anesthesia, each animal was attached to an electronic infusion pump and was administered vehicle, or 5, 10, 20, 30, or 40 mg/kg of the test prodrug (n=2 per dose) in 1 ml total volume by gradual constant-rate intravenous infusion over 10 minutes. Behavioral rating as described above began immediately following the end of infusion.
The above-described efficacy of the tested prodrug when administered orally or intravenously was compared to a mode of administration that allows for the introduction of the prodrug directly into the gut. For this “gastric bypass” experiment, young adult male Sprague Dawley rats (225-250 g body wt.) underwent implantation of intraduodenal catheters to allow for intraduodenal instillation of an aqueous buffered solution of the prodrug. Following full recovery from catheter implantation surgery, various concentrations of O-phosphonooxymethyl propofol disodium salt in vehicle, or vehicle alone, were administered via the catheter in a constant volume of 2 ml/kg body weight to yield doses of 0, 20, 30, 50, 100, 200, 300, and 400 mg/kg body weight (n=2 per dose). Behavioral assessment was conducted as described above. […] The depth and duration of sedation, and the length of unconsciousness in the higher dose groups, depended on the administered dose.

CC(C)c1cccc(C(C)C)c1OCOP(=O)([O-])[O-].[Na+].[Na+] [O-phosphonooxymethyl propofol disodium salt]
F_Cmax ([1]; Gb (intraduodenal) 1 mg/kg): 14.4% | F_AUCt ([1]; Gb (intraduodenal) 3 mg/kg): 9.34% | F_Cmax ([1]; Gb (intraduodenal) 3 mg/kg): 27.3% | F_AUCt ([1]; Gb (intraduodenal) 10 mg/kg): 27.4% | F_Cmax ([1]; Gb (intraduodenal) 10 mg/kg): 35.0% | F_AUCt ([1]; Gb (intraduodenal) 30 mg/kg): 55% | F_Cmax ([1]; Gb (intraduodenal) 30 mg/kg): 74.0% | F_AUCt ([1]; Gb (intraduodenal) 100 mg/kg): 161% | F_Cmax ([1]; Gb (intraduodenal) 100 mg/kg): 102% | F_AUCt ([1]; I.V. 5 mg/kg): 100% | F_Cmax ([1]; I.V. 5 mg/kg): 100% | F_AUCt ([1]; I.V. 50 mg/kg): 117.9% | F_Cmax ([1]; I.V. 50 mg/kg): 86.7% | bioavailability of propofol liberated from the prodrug (in words) ([1]; gastric bypass): markedly enhanced | F_AUCt ([1]; p.o. 20 mg/kg): 13.3% | F_Cmax ([1]; p.o. 20 mg/kg): 3.72% | F_AUCt ([1]; p.o. 50 mg/kg): 22.2% | F_Cmax ([1]; p.o. 50 mg/kg): 4.65% | F_Cmax ([1]; p.o. 100 mg/kg): 9.20% | F_AUCt ([1]; p.o. 100 mg/kg, disodium salt): 53.2% | F_AUCt ([1]; p.o. 100 mg/kg, listed as test compound, disodium salt): above 50% | Cmax bioavailability of propofol (F Cmax, in words) ([1]; p.o. 20, 50 and 100 mg/kg): limited at all tested dose levels | AUCt ([1]; Gb (intraduodenal) 3 mg/kg): 0.389 µg·min/mL | AUCt ([1]; Gb (intraduodenal) 10 mg/kg): 3.81 µg·min/mL | AUCt ([1]; Gb (intraduodenal) 30 mg/kg): 22.9 µg·min/mL | AUCt ([1]; Gb (intraduodenal) 100 mg/kg): 223 µg·min/mL | AUCt ([1]; I.V. 5 mg/kg): 6.94 µg·min/mL | AUCt ([1]; I.V. 50 mg/kg): 81.8 µg·min/mL | AUCt ([1]; p.o. 20 mg/kg): 3.70 µg·min/mL | AUCt ([1]; p.o. 50 mg/kg): 15.4 µg·min/mL | AUCt ([1]; p.o. 100 mg/kg): 73.8 µg·min/mL | Cmax ([1]; Gb (gastric bypass, intraduodenal) 1 mg/kg): 0.00826 µg/mL | Cmax ([1]; Gb (intraduodenal) 3 mg/kg): 0.0468 µg/mL | Cmax ([1]; Gb (intraduodenal) 10 mg/kg): 0.200 µg/mL | Cmax ([1]; Gb (intraduodenal) 30 mg/kg): 1.27 µg/mL | Cmax ([1]; Gb (intraduodenal) 100 mg/kg): 5.84 µg/mL | Cmax ([1]; I.V. 5 mg/kg): 0.286 µg/mL | Cmax ([1]; I.V. 50 mg/kg): 2.48 µg/mL | Cmax ([1]; p.o. 20 mg/kg): 0.0426 µg/mL | Cmax ([1]; p.o. 50 mg/kg): 0.133 µg/mL | Cmax ([1]; p.o. 100 mg/kg): 0.526 µg/mL | biological potency of the peak effect, oral/intragastric relative to intravenous administration [2]: approximately 10% | intraduodenal dose causing a pharmacological effect substantially similar to 40 mg/kg intravenous ([2]; FIG. 3 vs 4): 50 mg/kg | intraduodenal dose causing a pharmacological effect substantially similar to 400 mg/kg intragastrally ([2]; FIGS. 1, 2 vs 4): 100 mg/kg | intraduodenal dose expected to cause an effect substantially similar to IV 20-30 mg/kg ([2]; extrapolated from FIGS. 1-4): about 40 mg/kg | onset of sedative effect ([2]; intraduodenal 20-400 mg/kg): Within five minutes | behavioral effect following onset of sedation ([2]; intraduodenal, higher dose groups): loss of consciousness in the higher dose groups | behavioral effect ([2]; intravenous infusion 5-40 mg/kg over 10 minutes): rapid-onset dose-dependent sedated/anesthetized state | duration of sedated/anesthetized state ([2]; intravenous vs oral administration): shorter durations as compared to oral administration | oral bioavailability (conclusion of study) ([2]; oral): orally bioavaliable | behavioral effect compared to vehicle ([2]; oral 100-200 mg/kg): mild to moderate sedation | duration of mild to moderate sedation ([2]; oral 100-200 mg/kg, printed 'and longer'): 1 to 2 h | behavioral effect following onset of sedation ([2]; oral 300 and 400 mg/kg dose groups): loss of consciousness | onset of sedated behavior after dosing ([2]; oral gavage 100-400 mg/kg): 5 to 10 min | duration of loss of consciousness ([2]; oral, highest dose group): up to 1 hour | onset of sedated behavior after oral gavage ([2]; oral/intragastric, 35 mg/ml w/v aqueous solution, FIG. 1): 5 to 20 min
